Consider five molecules from BindingDB's records for doi:10.1176/jnp.8.2.223 (1996).

The Ki is the equilibrium dissociation constant of an inhibitor or competing ligand from its target. Read a high Ki as a looser hold on the target.

Values joined by “and” are separate entries in the source; they are usually repeats but may differ in a detail not shown here. Equal values may be shown once. Where a name gives a salt, the structure may show the parent alone.

D(2) dopamine receptor, sequence (P20288 whole entry): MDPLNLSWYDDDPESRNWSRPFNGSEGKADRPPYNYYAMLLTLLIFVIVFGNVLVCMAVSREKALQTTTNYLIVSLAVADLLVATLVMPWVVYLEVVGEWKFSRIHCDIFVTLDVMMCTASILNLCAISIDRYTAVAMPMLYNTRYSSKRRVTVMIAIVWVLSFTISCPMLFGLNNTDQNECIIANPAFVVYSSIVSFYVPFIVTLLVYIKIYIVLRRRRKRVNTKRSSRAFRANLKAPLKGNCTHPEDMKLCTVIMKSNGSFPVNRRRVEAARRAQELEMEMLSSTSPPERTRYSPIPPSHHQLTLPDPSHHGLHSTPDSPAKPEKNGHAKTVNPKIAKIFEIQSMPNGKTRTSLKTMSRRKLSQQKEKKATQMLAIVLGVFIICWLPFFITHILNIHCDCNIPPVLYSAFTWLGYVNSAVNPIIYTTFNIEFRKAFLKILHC

The target in one assay is D(1A) dopamine receptor (Bos taurus, UniProt Q95136).
D(1A) dopamine receptor, sequence (Q95136 whole entry): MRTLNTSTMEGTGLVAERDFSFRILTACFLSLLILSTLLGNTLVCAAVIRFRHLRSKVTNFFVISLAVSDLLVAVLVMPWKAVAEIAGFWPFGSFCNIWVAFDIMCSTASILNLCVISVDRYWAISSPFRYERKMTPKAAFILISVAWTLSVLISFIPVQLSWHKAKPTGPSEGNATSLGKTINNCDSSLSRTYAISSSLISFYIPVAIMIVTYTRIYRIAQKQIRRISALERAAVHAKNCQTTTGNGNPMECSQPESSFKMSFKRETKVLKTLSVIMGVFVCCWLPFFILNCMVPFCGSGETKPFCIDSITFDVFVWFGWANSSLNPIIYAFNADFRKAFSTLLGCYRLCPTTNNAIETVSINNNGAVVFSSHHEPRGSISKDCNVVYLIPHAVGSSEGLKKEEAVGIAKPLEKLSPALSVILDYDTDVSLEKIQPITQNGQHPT
The molecule `O=c1[nH]c2ccccc2n1C1CCN(CCCC(c2ccc(F)cc2)c2ccc(F)cc2)CC1` [1-(1-(4,4-bis(4-fluorophenyl)butyl)piperidin-4-yl)-1H-benzo[d]imidazol-2(3H)-one] showed a Ki of 4100 nM.

Regarding `O=C(CCCN1CCC(O)(c2ccc(Cl)cc2)CC1)c1ccc(F)cc1` [4-[4-(4-Chloro-phenyl)-4-hydroxy-piperidin-1-yl]-1-(4-fluoro-phenyl)-butan-1-one;propionate(HCl)], the affinity, expressed as Ki, was 650 nM.

The next assay concerns the target D(2) dopamine receptor (Bos taurus, UniProt P20288).
`O=c1[nH]c2ccccc2n1C1CCN(CCCC(c2ccc(F)cc2)c2ccc(F)cc2)CC1` [1-(1-(4,4-bis(4-fluorophenyl)butyl)piperidin-4-yl)-1H-benzo[d]imidazol-2(3H)-one]: the inhibition constant (Ki) was determined as 0.8 nM.

In the case of `OCCN1CCN(CCCN2c3ccccc3Sc3ccc(C(F)(F)F)cc32)CC1` [2-[4-[3-[2-(trifluoromethyl)phenothiazin-10-yl]propyl]piperazin-1-yl]ethanol;hydrochloride], the inhibition constant Ki is 1.2 nM and 0.5 nM.

`OCCN1CCN(CC/C=C2/c3ccccc3Sc3ccc(C(F)(F)F)cc32)CC1` [(cis) 2-{4-[3-(2-Trifluoromethyl-thioxanthen-9-ylidene)-propyl]-piperazin-1-yl}-ethanol(Flupentixol)] yielded a Ki of 1.1 nM.

The molecule `CN1CCN(CC/C=C2/c3ccccc3Sc3ccc(S(=O)(=O)N(C)C)cc32)CC1` [MLS000028463] came in with a Ki of 1.4 nM.
